# Data: EP0440303A1 (PROBICOM RESEARCH B.V., priority 1990, dated 1991)
# Where a SMILES comes first, the peptide text is derived from it.
# T1: tripeptidase of L.lactis subsp. cremoris Wg2 (Lactococcus lactis subsp. cremoris, UniProt P0C2T7)
# T1 sequence (P0C2T7 1-413): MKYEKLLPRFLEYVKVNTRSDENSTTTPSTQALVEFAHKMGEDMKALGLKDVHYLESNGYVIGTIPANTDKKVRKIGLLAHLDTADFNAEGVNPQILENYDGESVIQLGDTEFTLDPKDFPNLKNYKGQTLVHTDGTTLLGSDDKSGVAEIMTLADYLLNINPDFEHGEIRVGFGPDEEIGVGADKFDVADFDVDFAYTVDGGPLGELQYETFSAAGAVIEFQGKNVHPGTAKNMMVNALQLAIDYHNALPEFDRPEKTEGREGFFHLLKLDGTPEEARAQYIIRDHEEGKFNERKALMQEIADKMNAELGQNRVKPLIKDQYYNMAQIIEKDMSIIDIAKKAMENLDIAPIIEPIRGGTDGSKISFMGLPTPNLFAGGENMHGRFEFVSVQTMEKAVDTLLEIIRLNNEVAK
# B1: tripeptidase of L.lactis subsp. cremoris Wg2 (Lactococcus cremoris) (protein)
# chain: MKYEKLLPRFLEYVKVNTRSDENSTTTPSTQALVEFAHKMGEDMKALGLKDVHYLESNGYVIGTIPANTDKKVRKIGLLAHLDTADFNAEGVNPQILENYDGESVIQLGDTEFTLDPKDFPNLKNYKGQTLVHTDGTTLLGSDDKSGVAEIMTLADYLLNINPDFEHGEIRVGFGPDEEIGVGADKFDVADFDVDFAYTVDGGPLGELQYETFSAAGAVIEFQGKNVHPGTAKNMMVNALQLAIDYHNALPEFDRPEKTEGREGFFHLLKLDGTPEEARAQYIIRDHEEGKFNERKALMQEIADKMNAELGQNRVKPLIKDQYYNMAQIIEKDMSIIDIAKKAMENLDIAPIIEPIRGGTDGSKISFMGLPTPNLFAGGENMHGRFEFVSVQTMEKAVDTLLEIIRLNNEVAK
# notes: the resulting supernatant (i.e. cell-free extract) was used for enzyme isolation; made in house; host or cells: Natural producer L. lactis subsp. cremoris Wg2 (proteinase-negative variant), not recombinant; Purified by DEAE-Sephacel, Phenyl-Sepharose, Sephadex G-100 SF and HPLC TSK G3000 SW
# Target: T1, tripeptidase of L.lactis subsp. cremoris Wg2
# Assay: biochemical
# Details: read-out: inhibition of the enzyme activity
# Procedure: Peptidase activity was determined by measuring the release of leucine from the tripeptide leucyl-leucyl-leucine (leu₃) (2 mM in 20 mM 4-(2-hydroxyethyl)-1-piperazine-ethane-sulphonic acid [HEPES], pH 7.0). Enzyme and substrate were incubated for 10 min. at 30°C, and the release of leucine was measured by the modified cadmium-ninhydrin method as described by Doi et al., Anal.Biochem. 118, 1981, 173-184. […] Peptidase activity was determined as follows: the reaction mixture containing 2 mM substrate in 20 mM HEPES (pH 7.0) and a suitable amount of enzyme was incubated for 60 min. at 30°C.
# All the metal ions were added in the form of chlorides to exclude a possible effect of the anions.
row,Molecule,inhibition at 200 µM [%]
1,O=C(O)CN(CCN(CC(=O)O)CC(=O)O)CC(=O)O [EDTA],79

# Substrate: CC(C)C[C@H](NC(=O)[C@H](CC(C)C)NC(=O)[C@@H](N)CC(C)C)C(=O)O
# Assay: Determination of kinetic parameters for leu3 hydrolysis (coupled enzyme reaction)
# Assay type: biochemical, L.lactis subsp. cremoris Wg2
# Details: other: leu₃ as substrate, 30°C
Molecule,Km [µM],Vmax [µmol/min.mg protein],kcat [s⁻¹]
B1,150,151,264

# Target: T1, tripeptidase of L.lactis subsp. cremoris Wg2
# Assay: Substrate specificity: peptide hydrolysis analysed by TLC
# Assay type: biochemical
# Design: key: + : hydrolysis; - : no hydrolysis
# Details: peptide hydrolysis by the purified peptidase, 2 mM substrate in 20 mM HEPES (pH 7.0), 60 min at 30°C
row,Molecule,activity
1,CC(C)CC(NC(=O)CNC(=O)CN)C(=O)O (stereo not shown),+
2,C[C@H](N)C(=O)N[C@@H](C)C(=O)O [Ala2] (H-Ala-Ala-OH),-
3,C[C@H](N)C(=O)N[C@@H](C)C(=O)N[C@@H](C)C(=O)O [Ala3],+
4,C[C@H](N)C(=O)N[C@@H](C)C(=O)N[C@@H](C)C(=O)N[C@@H](C)C(=O)O [Ala4] (H-AAAA-OH),-
5,C[C@H](N)C(=O)N[C@@H](C)C(=O)N[C@@H](C)C(=O)N[C@@H](C)C(=O)N[C@@H](C)C(=O)O [Ala5],-
6,C[C@H](N)C(=O)N[C@@H](C)C(=O)N[C@@H](C)C(=O)N[C@@H](C)C(=O)N[C@@H](C)C(=O)N[C@@H](C)C(=O)O [Ala6],-
7,C[C@H](N)C(=O)N[C@@H](CC(=O)O)C(=O)O [Ala-Asp] (H-Ala-Asp-OH),-
8,C[C@H](N)C(=O)N[C@@H](Cc1cnc[nH]1)C(=O)N[C@@H](C)C(=O)O [Ala-His-Ala] (H-Ala-His-Ala-OH),+
9,C[C@H](N)C(=O)N1CCC[C@H]1C(=O)N[C@@H](C)C(=O)O [Ala-Pro-Ala] (H-Ala-Pro-Ala-OH),-
10,C[C@H](N)C(=O)N1CCC[C@H]1C(=O)N[C@@H](Cc1ccccc1)C(=O)O [Ala-Pro-Phe] (H-Ala-Pro-Phe-OH),-
11,CC(C)CC(NC(=O)C(NC(=O)C(C)N)C(C)C)C(=O)O (stereo not drawn) [Ala-Val-Leu],+
12,N=C(N)NCCCC(N)C(=O)NCC(=O)NCC(=O)O (stereo not drawn) [Arg-Gly-Gly],+
13,C[C@H](NC(=O)[C@@H](N)CCC(=O)O)C(=O)O [Glu-Ala] (H-Glu-Ala-OH),-
14,N[C@@H](CCC(=O)O)C(=O)N[C@@H](CCC(=O)O)C(=O)O [Glu-Glu] (H-Glu-Glu-OH),-
15,NCCCC[C@H](NC(=O)[C@@H](N)CCC(=O)O)C(=O)O [Glu-Lys] (H-Glu-Lys-OH),-
16,CC(C)[C@H](NC(=O)[C@@H](N)CCC(=O)O)C(=O)N[C@@H](Cc1ccccc1)C(=O)O [Glu-Val-Phe] (H-Glu-Val-Phe-OH),+
17,CC(C)[C@H](NC(=O)[C@@H](N)CCC(=O)O)C(=O)O [Glu-Val] (H-Glu-Val-OH),-
18,NCC(=O)NCC(=O)NCC(=O)O [Gly-Gly-Gly] (H-Gly-Gly-Gly-OH),+
19,NCC(=O)NCC(=O)NC(Cc1ccccc1)C(=O)O (stereo not drawn) [Gly-Gly-Phe],+
20,NCC(=O)NCC(=O)O [Gly-Gly] (H-Gly-Gly-OH),-
21,NCC(=O)NC(Cc1cnc[nH]1)C(=O)NCC(=O)O (stereo not drawn) [Gly-His-Gly],+
22,CC(C)CC(NC(=O)CN)C(=O)NC(Cc1ccc(O)cc1)C(=O)O (stereo not drawn) [Gly-Leu-Tyr] (H-Gly-Leu-Tyr-OH; configuration not given here),+
23,CC(C)CC(NC(=O)C(Cc1ccccc1)NC(=O)CN)C(=O)O (stereo not drawn) [Gly-Phe-Leu] (H-Gly-Phe-Leu-OH; configuration not given here),+
24,CC(NC(=O)C1CCCN1C(=O)CN)C(=O)O (stereo not drawn) [Gly-Pro-Ala],-

row,Molecule,activity
1,NCC(=O)N1CCC[C@H]1C(=O)NCC(=O)NCC(=O)O [Gly-Pro-Gly-Gly] (H-GPGG-OH),-
2,CC(NC(=O)C(CO)NC(=O)CN)C(=O)O (stereo not drawn) [Gly-Ser-Ala],+
3,CC(NC(=O)C(Cc1ccc(O)cc1)NC(=O)CN)C(=O)O (stereo not drawn) [Gly-Tyr-Ala],+
4,NC(Cc1cnc[nH]1)C(=O)NCC(=O)NCC(=O)O (stereo not drawn) [His-Gly-Gly],+
5,"CC(C)C[C@H](N)C(=O)NCC(=O)NCC(=O)O [Leu-Gly-Gly, leucyl-glycyl-glycine] (H-Leu-Gly-Gly-OH)",+
6,CC(C)C[C@H](N)C(=O)NCC(=O)O [Leu-Gly] (H-Leu-Gly-OH),-
7,"CC(C)C[C@H](NC(=O)[C@H](CC(C)C)NC(=O)[C@@H](N)CC(C)C)C(=O)O [Leu-Leu-Leu, leucyl-leucyl-leucine] (H-Leu-Leu-Leu-OH)",+
8,CC(C)C[C@H](NC(=O)[C@@H](N)CC(C)C)C(=O)O [Leu-Leu],-
9,CSCC[C@H](NC(=O)[C@@H](N)CC(C)C)C(=O)O [Leu-Met] (H-Leu-Met-OH),-
10,CSCCC(N)C(=O)NCC(=O)NCC(=O)O (stereo not drawn) [Met-Gly-Gly],+
11,CSCC[C@H](NC(=O)[C@H](Cc1ccccc1)NC(=O)CNC(=O)CNC(=O)[C@@H](N)Cc1ccc(O)cc1)C(=O)O [Met-enkephalin],-
12,NCCC[C@H](NC(=O)[C@H](CCCN)NC(=O)[C@@H](N)CCCN)C(=O)O [Orn-Orn-Orn],+
13,NC(Cc1ccccc1)C(=O)NCC(=O)NCC(=O)O (stereo not drawn) [Phe-Gly-Gly],+
14,CC(C)C[C@H](NC(=O)[C@@H](N)Cc1ccccc1)C(=O)O [Phe-Leu] (H-Phe-Leu-OH),-
15,O=C(O)CNC(=O)CNC(=O)C1CCCN1 (stereo not drawn) [Pro-Gly-Gly],+
16,NC(CO)C(=O)NCC(=O)NCC(=O)O (stereo not drawn) [Ser-Gly-Gly],+
17,CSCC[C@H](NC(=O)[C@H](CC(C)C)NC(=O)CNC(=O)[C@H](Cc1ccccc1)NC(=O)[C@H](Cc1ccccc1)NC(=O)[C@H](CCC(N)=O)NC(=O)[C@H](CCC(N)=O)NC(=O)[C@@H]1CCCN1C(=O)[C@H](CCCCN)NC(=O)[C@@H]1CCCN1C(=O)[C@@H](N)CCCNC(=N)N)C(N)=O [Substance P],-
18,N[C@@H](Cc1c[nH]c2ccccc12)C(=O)NCC(=O)NCC(=O)O [Trp-Gly-Gly] (H-Trp-Gly-Gly-OH),+
19,N[C@@H](Cc1ccc(O)cc1)C(=O)NCC(=O)NCC(=O)O [Tyr-Gly-Gly] (H-Tyr-Gly-Gly-OH),+
20,CC(C)[C@H](N)C(=O)NCC(=O)NCC(=O)O [Val-Gly-Gly] (H-Val-Gly-Gly-OH),+
21,"Bradykinin (RPPGFSPFR; Bradykinin; UniProt P01042 381-389, looked up)",-
22,Neurotensin,-
23,oxidized β-chain insulin,-

# Target: T1, tripeptidase of L.lactis subsp. cremoris Wg2
# Assay: Effects of chemical agents on the peptidase activity (leu3 hydrolysis)
# Assay type: biochemical
# Details: not given
Molecule,effect on the enzyme (summary in words),effect on the enzyme activity (in words)
"COC(CNC(=O)c1ccccc1OCC(=O)O)[CH2][Hg][OH] (stereo not shown) [Mersalyl, o-(3-hydroxymercuri-2-methoxypropyl)carbamylphenoxyacetate]",not inhibited,
"CCN1C(=O)C=CC1=O [NEM, N-ethylmaleimide]",,slightly inhibited the activity
"O=C(O)c1cc[c]([Hg][Cl])cc1 [pCMB, p-chloromercuribenzoate]",not inhibited,
"O=S(=O)(O)c1cc[c]([Hg][Cl])cc1 [pCMBS, p-chloromercuribenzenesulphonate]",not inhibited,

# Same assay, conditions: NEM 0.5 mM; cystine 0.05 mM; phenylarsine oxide 0.1 mM; DTT 1 mM; β-mercaptoethanol 0.4 mM; ferricyanide 3 mM after the reducing agents
row,Molecule,effect on the enzyme activity (in words)
1,"O[C@H](CS)[C@H](O)CS (racemic) [DTT, dithiothreitol]",strong inhibition
2,"N[C@@H](CSSC[C@H](N)C(=O)O)C(=O)O [Cystine, cystine]",had no effect on the enzyme activity
3,"OCCS [β-Mercaptoethanol, β-mercaptoethanol]",strong inhibition

# Same assay, conditions: pH 7, read-out: relative activity (%)
row,Molecule,activity at 500 µM [%]
1,"CCN1C(=O)C=CC1=O [NEM, N-ethylmaleimide]",76

# Same assay, conditions: pH 7; read-out: relative activity (%)
row,Molecule,activity at 400 µM [%]
1,"OCCS [β-Mercaptoethanol, β-mercaptoethanol]",14

# Same assay, conditions: reagent 0.05 mM; 0.84 μg enzyme/ml, 10 min at pH 7 (20°C) before leu3 was added; none = 100; read-out: relative activity (%)
row,Molecule,activity at 50 µM [%]
1,"N[C@@H](CSSC[C@H](N)C(=O)O)C(=O)O [Cystine, cystine]",118

# Same assay, conditions: reagent 1 mM; 0.84 μg enzyme/ml, 10 min at pH 7 (20°C) before leu3 was added; none = 100; read-out: relative activity (%)
row,Molecule,activity at 1000 µM [%]
1,"O[C@H](CS)[C@H](O)CS (racemic) [DTT, dithiothreitol]",4

# Same assay, conditions: summary statement, concentration not given
row,Molecule,effect on the enzyme (summary in words)
1,"O[C@H](CS)[C@H](O)CS (racemic) [DTT, dithiothreitol]",strong inhibition
2,"OCCS [β-Mercaptoethanol, β-mercaptoethanol]",strong inhibition
